Legend:
[1] = target: T1, IDO (Homo sapiens (Human), UniProt P14902); experiment: Kynurenine assay in IFN-γ-stimulated Hela cells; type: cell-based; details: 20 h, read-out: Hela Kyurenine (IC50)
Procedure, shortened: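 Kynurenine in supernatant is read at 490 nm after Ehrlich reagent (10 min RT), following TCA stop and 30 min at 50° C hydrolysis. Before that, Hela cells in phenol red-free RPMI/10% FBS were co-treated 20 h at 37° C with 100 ng/mL IFN-γ and compound (30 μM top, 3-fold series to 1.5 nM).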

[2] = target: T1, IDO; experiment: LLE_IDO_ABS_DR (IDO assay, method not described)

T1 sequence (P14902 whole entry): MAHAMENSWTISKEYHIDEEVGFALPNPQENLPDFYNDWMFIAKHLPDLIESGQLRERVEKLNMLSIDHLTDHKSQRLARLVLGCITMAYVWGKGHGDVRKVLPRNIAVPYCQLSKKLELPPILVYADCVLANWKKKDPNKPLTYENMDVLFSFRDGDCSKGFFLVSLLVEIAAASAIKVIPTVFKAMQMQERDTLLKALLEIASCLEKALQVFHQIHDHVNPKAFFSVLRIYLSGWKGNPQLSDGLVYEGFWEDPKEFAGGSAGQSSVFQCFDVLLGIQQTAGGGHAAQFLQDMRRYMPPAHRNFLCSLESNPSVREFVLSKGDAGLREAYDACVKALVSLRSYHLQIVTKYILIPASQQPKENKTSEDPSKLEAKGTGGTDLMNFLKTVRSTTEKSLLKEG

Structure (SMILES)	IC50 [1]	IC50 [2]
Cc1ccccc1NC(=O)Nc1cc(-c2ccc(Cl)cc2C(=O)O)ccc1Oc1ccccc1C(C)(C)C [Example 159, 4′-(2-tert-butylphenoxy)-4-chloro-3′-(3-o-tolylureido)biphenyl-2-carboxylic acid]	870 nM	3470 nM
Cc1ccc(NC(=O)Nc2cc(-c3ccc(Cl)cc3C(=O)O)ccc2Oc2ccccc2C(C)(C)C)cc1 [Example 161, 4′-(2-tert-butylphenoxy)-4-chloro-3′-(3-p-tolylureido)biphenyl-2-carboxylic acid]	50 nM	240 nM
COc1ccc(-c2ccc(Oc3ccccc3C(C)(C)C)c(NC(=O)Nc3ccccc3C)c2)c(C(=O)O)c1 [Example 162, 4′-(2-tert-butylphenoxy)-4-methoxy-3′-(3-o-tolylureido)biphenyl-2-carboxylic acid]	1250 nM	2240 nM
COc1ccc(-c2ccc(Oc3ccccc3C(C)(C)C)c(NC(=O)Nc3ccc(C)cc3)c2)c(C(=O)O)c1 [Example 163, 4′-(2-tert-butylphenoxy)-4-methoxy-3′-(3-p-tolylureido)biphenyl-2-carboxylic acid]	160 nM	470 nM
COc1ccc(-c2ccc(Oc3ccccc3C(C)(C)C)c(NC(=O)Nc3ccccc3Cl)c2)c(C(=O)O)c1 [Example 164, 4′-(2-tert-butylphenoxy)-3′-(3-(2-chlorophenyl)ureido)-4-methoxybiphenyl-2-carboxylic acid]	280 nM	330 nM
COc1cc(C(=O)O)c(-c2ccc(Oc3ccccc3C(C)(C)C)c(NC(=O)Nc3ccc(C)cc3)c2)cc1OC [Example 165, 4′-(2-tert-butylphenoxy)-4,5-dimethoxy-3′-(3-p-tolylureido)biphenyl-2-carboxylic acid]	390 nM	460 nM
Cc1ccccc1NC(=O)Nc1cc(-c2cc(Cl)ccc2C(=O)O)ccc1Oc1ccccc1C(C)(C)C [Example 167, 4′-(2-tert-butylphenoxy)-5-chloro-3′-(3-o-tolylureido)biphenyl-2-carboxylic acid]	1670 nM	3810 nM
Cc1ccc(NC(=O)Nc2cc(-c3cc(Cl)ccc3C(=O)O)ccc2Oc2ccccc2C(C)(C)C)cc1 [Example 168, 4′-(2-tert-butylphenoxy)-5-chloro-3′-(3-p-tolylureido)biphenyl-2-carboxylic acid]	240 nM	660 nM
Cc1ccccc1NC(=O)Nc1cc(-c2cccc(Cl)c2C(=O)O)ccc1Oc1ccccc1C(C)(C)C [Example 173, 4′-(2-tert-butylphenoxy)-3-chloro-3′-(3-o-tolylureido)biphenyl-2-carboxylic acid]	1630 nM	3070 nM
Cc1ccc(NC(=O)Nc2cc(-c3cccc(Cl)c3C(=O)O)ccc2Oc2ccccc2C(C)(C)C)cc1 [Example 174, 4′-(2-tert-butylphenoxy)-3-chloro-3′-(3-p-tolylureido)biphenyl-2-carboxylic acid]	280 nM	320 nM
Cc1ccccc1NC(=O)Nc1cc(-c2cccc(F)c2C(=O)O)ccc1Oc1ccccc1C(C)(C)C [Example 175, 4′-(2-tert-butylphenoxy)-3-fluoro-3′-(3-o-tolylureido)biphenyl-2-carboxylic acid]	1480 nM	2580 nM
Cc1ccc(NC(=O)Nc2cc(-c3ccc(C(F)(F)F)cc3C(=O)O)ccc2Oc2ccccc2C(C)(C)C)cc1 [Example 177, 4′-(2-tert-butylphenoxy)-3′-(3-p-tolylureido)-4-(trifluoromethyl)biphenyl-2-carboxylic acid]	200 nM	420 nM
CC(C)(C)c1ccccc1Oc1ccc(-c2ccccc2-c2nnn[nH]2)cc1NC(=O)Nc1ccccc1 [Example 180, 1-(4-(2-tert-butylphenoxy)-2′-(1H-tetrazol-5-yl)biphenyl-3-yl)-3-phenylurea]	150 nM	270 nM
Cc1ccc(NC(=O)Nc2cc(-c3ccccc3-c3nnn[nH]3)ccc2Oc2cccc3c2CCCC3)cc1 [Example 185, 1-(4-(5,6,7,8-tetrahydronaphthalen-1-yloxy)-2′-(1H-tetrazol-5-yl)biphenyl-3-yl)-3-p-tolylurea]	160 nM	680 nM
O=C(Nc1ccccc1F)Nc1cc(-c2ccccc2-c2nnn[nH]2)ccc1Oc1cccc2c1CCCC2 [Example 188, 1-(2-fluorophenyl)-3-(4-(5,6,7,8-tetrahydronaphthalen-1-yloxy)-2′-(1H-tetrazol-5-yl)biphenyl-3-yl)urea]	870 nM	1830 nM

The remaining molecules from weak to strong by IC50 [1], led by results:

IC50 [1]	IC50 [2]	Structure (SMILES)
1300 nM	3630 nM	CC(C)(C)c1ccccc1Oc1ccc(-c2cc(Cl)ccc2C(=O)O)cc1NC(=O)Nc1ccccc1Cl [Example 166, 4′-(2-tert-butylphenoxy)-5-chloro-3′-(3-(2-chlorophenyl)ureido)biphenyl-2-carboxylic acid]
1280 nM	1920 nM	CC(C)(C)c1ccccc1Oc1ccc(-c2cccc(Cl)c2C(=O)O)cc1NC(=O)Nc1ccccc1Cl [Example 172, 4′-(2-tert-butylphenoxy)-3-chloro-3′-(3-(2-chlorophenyl)ureido)biphenyl-2-carboxylic acid]
890 nM	1740 nM	Cc1ccc(NC(=O)Nc2cc(-c3ccc(C(=O)O)nc3)ccc2Oc2ccccc2C(C)(C)C)cc1 [Example 178, 5-(4-(2-tert-butylphenoxy)-3-(3-p-tolylureido)phenyl)picolinic acid]
860 nM	2330 nM	Cc1ccccc1NC(=O)Nc1cc(-c2ccccc2-c2nnn[nH]2)ccc1Oc1cccc2c1CCCC2 [Example 187, 1-(4-(5,6,7,8-tetrahydronaphthalen-1-yloxy)-2′-(1H-tetrazol-5-yl)biphenyl-3-yl)-3-o-tolylurea]
810 nM	2230 nM	Cc1ccc(NC(=O)Nc2cc(-c3ccc(F)cc3C(=O)O)ccc2Oc2ccccc2C(C)(C)C)cc1 [Example 170, 4′-(2-tert-butylphenoxy)-4-fluoro-3′-(3-p-tolylureido)biphenyl-2-carboxylic acid]
660 nM	2340 nM	CC(C)(C)c1ccccc1Oc1ccc(-c2ccc(F)cc2C(=O)O)cc1NC(=O)Nc1ccccc1Cl [Example 169, 4′-(2-tert-butylphenoxy)-3′-(3-(2-chlorophenyl)ureido)-4-fluorobiphenyl-2-carboxylic acid]
360 nM	1240 nM	O=C(Nc1ccc(Cl)cc1)Nc1cc(-c2ccccc2-c2nnn[nH]2)ccc1Oc1cccc2c1CCCC2 [Example 189, 1-(4-chlorophenyl)-3-(4-(5,6,7,8-tetrahydronaphthalen-1-yloxy)-2′-(1H-tetrazol-5-yl)biphenyl-3-yl)urea]
170 nM	450 nM	CC(C)(C)c1ccccc1Oc1ccc(-c2ccccc2-c2nnn[nH]2)cc1NC(=O)Nc1ccccc1F [Example 190, 1-(4-(2-tert-butylphenoxy)-2′-(1H-tetrazol-5-yl)biphenyl-3-yl)-3-(2-fluorophenyl)urea]
90 nM	310 nM	Cc1ccc(NC(=O)Nc2cc(-c3cccc(F)c3C(=O)O)ccc2Oc2ccccc2C(C)(C)C)cc1 [Example 171, 4′-(2-tert-butylphenoxy)-3-fluoro-3′-(3-p-tolylureido)biphenyl-2-carboxylic acid]
90 nM	740 nM	Cc1ccccc1NC(=O)Nc1cc(-c2ccccc2-c2nnn[nH]2)ccc1Oc1ccccc1C(C)(C)C [Example 181, 1-(4-(2-tert-butylphenoxy)-2′-(1H-tetrazol-5-yl)biphenyl-3-yl)-3-o-tolylurea]
